Measured values taken from patent US11560391B2, “Sulfonylurea compounds as inhibitors of interleukin-1 activity” (Genentech, Inc., priority 2018, dated 2023).
Where two headings read alike, the source gives them in different places.

Experiments:
PBMCs = test: CTG (CellTiter-Glo) viability assay of compound-treated LPS and nigericin stimulated PBMCs; type: cell-based, human; details: Homo sapiens, PBMC
Method: (§1) Human peripheral blood mononuclear cells (PBMCs), consisting of lymphocytes (T, B and NK cells), monocytes and dendritic cells, are freshly isolated from human peripheral blood from healthy donors. Cells are obtained through an IRB approved donor program by iXCells Biotechnologies where all the donors are tested for bacterial and viral infections. Cells are purified from peripheral blood using ficoll gradient centrifugation.
(§2) Fresh or cryopreserved PMBCs are seeded in V-bottom 96-well plate at 0.5-1×10^5 cells per well and incubated overnight at 37° C. with 5% CO2 in RPMI 1640 medium with GlutaMAX supplement, 4.5 g/L D-glucose, 10% Fetal Bovine Serum (FBS), […] Sodium Pyruvate, 1% Penicillin/Streptomycin, 10 mM HEPES and 0.05 mM of […]. Freshly isolated or cryopreserved KCs cells are seeded in flat-bottom 96-well plates at 0.6-1.5×10^5 cells/well and incubated overnight at 37° C., 5% CO2 in RPMI 1640 Medium with GlutaMAX supplement, FBS, 1% Penicillin/Streptomycin and 10 mM HEPES. The following day, the cells are primed with 100 ng/mL of lipopolysaccharides (LPS; Sigma Aldrich) in FBS-free RPMI 1640 for 3 h. After the priming step, the media is removed and PBMCs are pre-incubated with serial concentrations of test compounds (0.00017-10 uM) or vehicle (DMSO) for 30 min in FBS-free media prior to addition of the NLRP3 activator. Cells are then stimulated with 10 μM Nigericin (Sigma Aldrich; InvivoGen) for 1.5 h. Plates were centrifuged at 1,500 rpm for 3 minutes to pellet cells and supernatant was transferred into new plates for subsequent experiments.
Viability of compound treated cells is measured using CellTiter-Glo® assay (Promega, Madison, Wis.) that measures the ATP content of cells which is proportional to the number of live cells within a well. This is a counter-screen to establish that the reduction of IL-1β levels in LPS and nigericin stimulated and compound treated cells is not due to cytotoxicity, but rather through the inhibition of the inflammasome pathway. Compounds inhibiting NRLP3 inflammasome activation ultimately increase the viability of LPS and nigericin stimulated cells by blocking NLRP3 mediated pyroptosis that would otherwise lead to cell lysis.

TNFα = TNFα levels of LPS and nigericin stimulated PBMCs (counter-screen); type: cell-based; details: Homo sapiens, PBMC
Method: as §1, §2
For ELISA assays cells are seeded into 96-well plates. Post study, supernatants are removed and the levels of mature IL-1β, IL18 and TNFα (Quantikine ELISA, R&D systems) are measured in cell conditioned media by ELISA according to manufacturer's instructions.
TNFα levels of LPS and nigericin stimulated cells are measured by HTRF assay (Cisbio, Bedford, Mass.). […] Measuring TNFalpha production also serves as a technical counter-screen to eliminate compounds that interfere with the HTRF reagents. Thus compounds that inhibit both IL-1β and TNFα levels are triaged for either being non-selective for inflammasome or interfering with the HTRF readout.

NLRP3 inflammasome = biological target: T1, NLRP3 inflammasome (Homo sapiens, UniProt Q96P20); test: NLRP3 inflammasome activation assay in LPS-primed, nigericin-stimulated PBMCs, IL-1β release; type: cell-based; details: 10 μM nigericin
T1 construct: freshly isolated from human peripheral blood from healthy donors; StemCells Technologies; host or cells: primary human PBMCs
T1 sequence (Q96P20 whole entry): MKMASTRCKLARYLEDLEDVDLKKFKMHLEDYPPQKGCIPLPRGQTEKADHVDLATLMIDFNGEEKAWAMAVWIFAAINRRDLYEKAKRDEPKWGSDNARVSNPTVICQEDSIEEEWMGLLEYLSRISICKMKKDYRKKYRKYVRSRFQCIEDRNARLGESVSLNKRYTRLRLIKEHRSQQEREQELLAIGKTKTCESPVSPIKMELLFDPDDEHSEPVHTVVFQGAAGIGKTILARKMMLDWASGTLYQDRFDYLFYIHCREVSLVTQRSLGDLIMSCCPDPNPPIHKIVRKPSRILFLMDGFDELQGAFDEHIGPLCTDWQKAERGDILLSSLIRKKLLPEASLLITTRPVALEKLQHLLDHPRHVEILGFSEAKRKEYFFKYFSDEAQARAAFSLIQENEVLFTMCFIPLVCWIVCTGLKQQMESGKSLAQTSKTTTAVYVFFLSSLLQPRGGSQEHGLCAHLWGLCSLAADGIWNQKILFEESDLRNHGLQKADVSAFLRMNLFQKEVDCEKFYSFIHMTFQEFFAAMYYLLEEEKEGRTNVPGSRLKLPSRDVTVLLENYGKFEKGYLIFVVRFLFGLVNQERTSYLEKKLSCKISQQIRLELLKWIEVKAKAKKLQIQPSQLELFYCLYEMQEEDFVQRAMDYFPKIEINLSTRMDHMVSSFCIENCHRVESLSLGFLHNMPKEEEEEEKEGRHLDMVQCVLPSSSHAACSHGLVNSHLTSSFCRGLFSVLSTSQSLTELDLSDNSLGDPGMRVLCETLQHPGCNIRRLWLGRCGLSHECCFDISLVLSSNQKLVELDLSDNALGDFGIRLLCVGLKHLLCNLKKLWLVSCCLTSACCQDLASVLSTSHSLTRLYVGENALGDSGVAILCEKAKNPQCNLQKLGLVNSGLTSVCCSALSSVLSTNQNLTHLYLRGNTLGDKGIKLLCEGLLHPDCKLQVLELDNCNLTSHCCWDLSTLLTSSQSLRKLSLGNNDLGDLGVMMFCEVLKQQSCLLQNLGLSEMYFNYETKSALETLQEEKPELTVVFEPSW
Outline: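 Fresh or cryopreserved human PBMCs primed with 100 ng/mL LPS for 3 h, pre-incubated 30 min with compound (0.00017-10 uM, or 2-fold 20-point series from 40 μM), then stimulated with 10 μM nigericin for 1.5 h at 37 °C. Supernatant IL-1β measured by ELISA or by HTRF (665/620 ratio).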

THP-1 ASC-GFP cells = test: THP-1 ASC-GFP speck assay (NLRP3 inflammasome activation, nigericin); type: cell-based; details: THP1-ASC-GFP; PMA-differentiated, LPS primed, 10 μM nigericin
Method: THP-1 ASC-GFP cell line was purchased from Invivogen, San Diego, for infammasome activation assay. THP-1 ASC-GFP cells stably express a 37.6 kDa ASC::GFP fusion protein that enables monitoring of spec formation by microscopy after activation of NLRP3 dependent inflammasome pathway. Cells were maintained at a density of 600,000 cells/mL in growth media consisting of RPMI 1640, 2 mM L-glutamine, 25 mM HEPES and 10% heat inactivated fetal bovine serum at 37° C. and 5% CO2. Cells were passaged every 3-4 days and used for assays for up to 20 passages.
THP-1 ASC-GFP cells were collected by centrifuging cells at 800 RPM for 5 minutes. Cell culture supernatant was removed and cells were re-suspended in fresh media at density of 1×10^6 cells/mL in assay media consisting of RPMI 1640, 2 mM L-glutamine, 25 mM HEPES and 10% heat inactivated fetal bovine serum. Phorbol 12-myristate 13-acetate (PMA) (Invivogen,tlrl-pma) was added to the cell suspension at a final concentration of 500 ng/ml and mixed thoroughly. 40,000 cells were added per well of a 384 well plate and differentiated into macrophages overnight at 37° C. and 5% CO2. Cells were primed with 1 μg/mL of lipopolysaccharide (Invivogen Ultrapure lipopolysaccharide from E. coli, tlrl-3pelps) in assay media for 3 hours at 37° C. and 5% CO2. After priming, media was removed and THP-1 ASC-GFP cells were preincubated with serially diluted test compounds with starting concentration of 40 μM followed by 2-fold dilution for a 20-point curve or vehicle (DMSO) for 30 min in assay media at 37° C. and 5% CO2. Cells were then stimulated with 10 μM nigericin (Invivogen, tlrl-nig-5) for 90 min at 37° C. and 5% CO2 to activate NLRP3 dependent inflammasome pathway and spec formation. After stimulation, cells were fixed with 4.8% paraformaldehyde (Electron Microscopy Sciences #15710-S) and incubated at room temperature for 15 min. Cells were then washed 3-times with 100 μL of phosphate buffered saline and permeabilized in the presence of premeablization/block buffer for 20 min at room temperature. Cells were then washed 3-times with 100 μL phosphate buffered saline and incubated for 1 hr at room temperature in the presence of hoechst. After staining with Hoechst, cells were washed 3-times with 100 μL phosphate buffered saline and imaged for ASC spec formation.
THP-1 ASC-GFP cells were imaged in 488 and Hoechst channels. Hoechst channel was used for cell count and 488 channel was used to identify number of GFP ASC specks in imaged fields. Percentage of cells with a spec was calculated by dividing the number of GFP positive spots by total number of cells.

[1] = LPS and nigericin stimulated cells, read-out: CTG pIC50 (converted)
[2] = LPS and nigericin stimulated cells, read-out: TNFa pIC50 (converted)
[3] = LPS 100 ng/mL priming, read-out: IL-1B pIC50 (converted)
[4] = PBMC, LPS priming, read-out: PMBC IL-1β IC50

SMILES | IC50 (PBMCs; [1]) [µM] | IC50 (TNFα; [2]) [µM] | IC50 (NLRP3 inflammasome; [3]) [nM] | IC50 (PBMCs; read-out: PMBC CTG IC50) [µM] | IC50 (NLRP3 inflammasome; [4]) [nM] | IC50 (THP-1 ASC-GFP cells) [nM] | also measured
CC(C)NC(=O)NS(=O)(=O)c1cnn2c1OCC(CN)C2 (centres unmarked) | > 10 | > 10 | > 10000 |  |  |  | 
CC(C)NC(=O)NS(=O)(=O)c1cnn2c1OCC(CN)C2 (racemic) [Example 56, 6-(aminomethyl)-N-(isopropylcarbamoyl)-6,7-dihydro-5H-pyrazolo[5,1-b][1,3]oxazine-3-sulfonamide] |  |  |  | > 10 | > 10000 |  | IC50 (TNFα; read-out: PMBC TNFα IC50): > 10 µM
CCn1nc(C(C)C)c(NC(=O)NS(=O)(=O)c2cnn3c2OCCC3)c1C(C)C [Example 34, N-((1-ethyl-3,5-diisopropyl-1H-pyrazol-4-yl)carbamoyl)-6,7-dihydro-5H-pyrazolo[5,1-b][1,3]oxazine-3-sulfonamide] |  |  |  | 1.98 | 3190 | 3700 | 
CC(C)c1nn(CC2CC2)c(C(C)C)c1NC(=O)NS(=O)(=O)c1cnn2c1OCCC2 [Example 35, N-((1-(cyclopropylmethyl)-3,5-diisopropyl-1H-pyrazol-4-yl)carbamoyl)-6,7-dihydro-5H-pyrazolo[5,1-b][1,3]oxazine-3-sulfonamide] |  |  |  | 0.12 | 950 | 1400 | 
CO[C@@H]1COc2c(S(=O)(=O)NC(=O)Nc3c(C(C)C)nn(C)c3C(C)C)cnn2C1 [Example 38a, (S)—N-((3,5-diisopropyl-1-methyl-1H-pyrazol-4-yl)carbamoyl)-6-methoxy-6,7-dihydro-5H-pyrazolo[5,1-b][1,3]oxazine-3-sulfonamide] |  |  |  | 0.68 | 1140 | 2500 | 
CCn1nc(C(C)C)c(NC(=O)NS(=O)(=O)c2cnn3c2OC[C@@H](OC)C3)c1C(C)C [Example 39a, (S)—N-((1-ethyl-3,5-diisopropyl-1H-pyrazol-4-yl)carbamoyl)-6-methoxy-6,7-dihydro-5H-pyrazolo[5,1-b][1,3]oxazine-3-sulfonamide] |  |  |  | 0.97 | 1240 | 400 | 
CN[C@@H]1COc2c(S(=O)(=O)NC(=O)Nc3c(C(C)C)cc(OC)nc3C(C)C)cnn2C1 [Example 41a, (S)—N-((2,4-diisopropyl-6-methoxypyridin-3-yl)carbamoyl)-6-(methylamino)-6,7-dihydro-5H-pyrazolo[5,1-b][1,3]oxazine-3-sulfonamide] |  |  |  | 0.013 | 370 | 680 | 
COc1cc(C(C)C)c(NC(=O)NS(=O)(=O)c2cnn3c2OC[C@@H](N2CC(OC)C2)C3)c(C(C)C)n1 [Example 42a, Sodium (S)—N-((2,4-diisopropyl-6-methoxypyridin-3-yl)carbamoyl)-6-(3-methoxyazetidin-1-yl)-6,7-dihydro-5H-pyrazolo[5,1-b][1,3]oxazine-3-sulfonamide] |  |  |  | 0.24 | 120 | 1100 | 
COc1cc(C(C)C)c(NC(=O)NS(=O)(=O)c2cnn3c2OCC(C)(C)C3)c(C(C)C)n1 [Example 47, N-((2,4-diisopropyl-6-methoxypyridin-3-yl)carbamoyl)-6,6-dimethyl-6,7-dihydro-5H-pyrazolo[5,1-b][1,3]oxazine-3-sulfonamide] |  |  |  | 1.16 | 2010 | 8300 | IC50 (TNFα; read-out: PMBC TNFα IC50): > 10 µM
Cc1cc(C(C)C)c(NC(=O)NS(=O)(=O)c2cnn3c2OCCC3)c(C(C)C)n1 [Example 48, N-((2,4-diisopropyl-6-methylpyridin-3-yl)carbamoyl)-6,7-dihydro-5H-pyrazolo[5,1-b][1,3]oxazine-3-sulfonamide] |  |  |  | 2.43 | 2470 | 2000 | IC50 (TNFα; read-out: PMBC TNFα IC50): > 10 µM
CC(C)c1cc(C#N)nc(C(C)C)c1NC(=O)NS(=O)(=O)c1cnn2c1OCCC2 [Example 49, N-((6-cyano-2,4-diisopropylpyridin-3-yl)carbamoyl)-6,7-dihydro-5H-pyrazolo[5,1-b][1,3]oxazine-3-sulfonamide] |  |  |  | 0.56 | 1250 | 2500 | 
CCOc1cc(C(C)C)c(NC(=O)NS(=O)(=O)c2cnn3c2OCCC3)c(C(C)C)n1 [Example 50, N-((6-ethoxy-2,4-diisopropylpyridin-3-yl)carbamoyl)-6,7-dihydro-5H-pyrazolo[5,1-b][1,3]oxazine-3-sulfonamide] |  |  |  | 1.18 | 2810 | 4700 | 
CC(C)c1ncc2c(c1NC(=O)NS(=O)(=O)c1cnn3c1OCCC3)CCC2 [Example 55, N-((3-isopropyl-6,7-dihydro-5H-cyclopenta[c]pyridin-4-yl)carbamoyl)-6,7-dihydro-5H-pyrazolo[5,1-b][1,3]oxazine-3-sulfonamide] |  |  |  |  | > 10000 |  | IC50 (PBMCs; read-out: PMBC CTG IC50 (μM)): > 10 µM; IC50 (TNFα; read-out: PMBC TNFα IC50 (μM)): > 10 µM
COc1cc(C(C)C)c(NC(=O)NS(=O)(=O)c2cnn3c2OCC(C)(C)C3)c(C(C)C)n1 [drawing 414] | 1 to 10 | > 10 | 1000 to 10000 |  |  |  | 
Cc1cc(C(C)C)c(NC(=O)NS(=O)(=O)c2cnn3c2OCCC3)c(C(C)C)n1 [drawing 415] | 1 to 10 | > 10 | 1000 to 10000 |  |  |  | 
COc1cc(C(C)C)c(NC(=O)NS(=O)(=O)c2cnn3c2OC[C@@H](N(C)C)C3)c(C(C)C)n1 [drawing 419] | 0.1 to 1 | > 10 | 100 to 1000 |  |  |  | 
CNc1cc(C(C)C)c(NC(=O)NS(=O)(=O)c2cnn3c2OCCC3)c(C(C)C)n1 [drawing 420] | 0.1 to 1 | > 10 | 1000 to 10000 |  |  |  | 
CC(C)c1cc(C(F)(F)F)nc(C(C)C)c1NC(=O)NS(=O)(=O)c1cnn2c1OCCC2 [drawing 421] | < 0.1 | > 10 | 100 to 1000 |  |  |  | 
CC(C)c1ncc2c(c1NC(=O)NS(=O)(=O)c1cnn3c1OCCC3)CCC2 [drawing 422] | > 10 | > 10 | > 10000 |  |  |  | 
